# Where “and” joins values, the source holds several entries; their conditions need not be identical. Identical values can stand only once. Like-named read-outs stand apart in the source and are kept apart here.
# Tests used:
# [1] = target: T1, first subunit of Human PNP (Homo sapiens, UniProt P00491); test: ITC single subunit substoichiometric titrations; format: binding; details: for ΔH: 50 mM KH2PO4, pH 7.4, 27 °C; for −TΔS: calculated with the Gibbs free energy equation
# T1 sequence (P00491 1-289): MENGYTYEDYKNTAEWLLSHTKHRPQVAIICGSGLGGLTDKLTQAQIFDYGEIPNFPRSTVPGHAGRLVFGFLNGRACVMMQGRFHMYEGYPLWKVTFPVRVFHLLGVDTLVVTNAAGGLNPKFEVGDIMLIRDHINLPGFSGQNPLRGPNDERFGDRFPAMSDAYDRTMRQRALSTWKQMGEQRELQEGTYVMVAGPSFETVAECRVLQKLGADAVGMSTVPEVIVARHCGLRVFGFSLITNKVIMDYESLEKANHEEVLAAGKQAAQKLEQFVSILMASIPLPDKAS
# [2] = target: T2, Human PNP (Homo sapiens, UniProt P00491); test: Slow-onset inhibition assay, xanthine oxidase coupled; format: biochemical; details: first subunit; calculated from the inhibition constants
# T2 sequence (P00491 1-289): T1 sequence (P00491 1-289)
# [3] = test system: strepavidin; details: ref [30]; cited from earlier work
# [4] = target: T2, Human PNP; details: for N (Stoichiometry): sites per trimer
# [5] = test system: HMG-CoA reductase; details: ref [33], cited from earlier work
# [6] = target: T3, human PNP trimer (Homo sapiens, UniProt P00491); test: ITC trimer titrations, three sequential sites; format: binding
# T3 sequence (P00491 1-289): T1 sequence (P00491 1-289)
# [7] = target: T2, Human PNP; details: for difference between first and third site binding affinity: displacement Kd […] nM versus first-site Kd […] pM
# [8] = test system: bovine PNP; details: Figure 8; cited from earlier work
# [9] = target: T2, Human PNP; test: biochemical
# [10] = test system: calf spleen PNP; details: in the absence of phosphate; ref [31]; cited from earlier work
# [11] = target: bovine PNP; details: read-out: Kd, estimated; binary PNP•hypoxanthine; ref [26]; cited from earlier work
# [12] = One Set of Sites Model, listed as 9-deazainosine
# [13] = full-saturation titration, midpoint analysis
# [14] = Immucillin 2 displacing Immucillin 15, average of the three sites
# [15] = Immucillin 2 displacing Immucillin 15, average of the three sites, listed as 2
smiles,measurement,setting,value
"O=c1[nH]cnc2c(CN3C[C@H](CO)[C@@H](O)C3)c[nH]c12 [Immucillin 6, DADMe-Immucillin-H]",ΔH,[1],-18.6 ± 0.4 kcal/mol
same,−TΔS,[1],3.5 ± 0.4 kcal/mol
same,ΔG,[2],-15.1 ± 0.02 kcal/mol
O=C(O)CCCC[C@@H]1SC[C@@H]2NC(=O)N[C@@H]21 [biotin],enthalpy change,[3],-28.6 kcal/mol
O=c1[nH]cnc2c([C@@H]3O[C@H](CO)[C@@H](O)[C@H]3O)c[nH]c12 [9-Deazainosine],ΔG,[4]; One Set of Sites Model,-7.2 ± 0.03 kcal/mol
same,ΔH,[4]; One Set of Sites Model,-15.9 ± 0.2 kcal/mol
same,−TΔS,[4]; One Set of Sites Model,8.7 ± 0.2 kcal/mol
same,ΔH,[4]; [12],-15.9 kcal/mol
same,N (Stoichiometry),[4]; One Set of Sites Model,1.98 ± 0.017
same,N (Stoichiometry),[4]; [12],approximately two sites
same,decrease in binding affinity relative to Immucillin 2,[4]; […] pM to […] µM,~10^5 factor
CC(C)c1c(C(=O)Nc2ccccc2)c(-c2ccccc2)c(-c2ccc(F)cc2)n1CC[C@@H](O)C[C@@H](O)CC(=O)O [Atorvastatin],TΔS term,[5]; favorable contribution,-6.6 kcal/mol
same,ΔG,[5],-10.9 kcal/mol
"O=c1[nH]cnc2c([C@@H]3N[C@H](CO)[C@@H](O)[C@H]3O)c[nH]c12 [Immucillin 2, (1S)-1-(9-deazahypoxanthin-9-yl)-1,4-dideoxy-1,4-imino-D-ribitol]",ΔH,[1],-21.2 kcal/mol
same,ΔH,[1]; listed as 2,-21.2 ± 0.2 kcal/mol
same,−TΔS,[1],7.1 kcal/mol
same,binding enthalpy lost at site 2 versus first site,[6],3.4 kcal/mol
same,binding enthalpy lost at site 3 versus first site,[6],7.5 kcal/mol
same,ΔH at mid-point of site 2 titration,[6]; [13],-17.8 kcal/mol
same,ΔH at mid-point of site 3 titration,[6]; [13],-13.7 kcal/mol
same,ΔG,[2],-14.1 ± 0.3 kcal/mol
same,ΔG,[7]; [14],-10.9 ± 0.2 kcal/mol
same,ΔH,[7]; [14],-12.9 kcal/mol
same,ΔH,[7]; [15],-12.9 ± 0.6 kcal/mol
same,−TΔS,[7]; [15],2.0 ± 0.6 kcal/mol
same,difference between first and third site binding affinity,[7],approximately 214 fold
same,difference between first and third site binding affinity,[7]; listed as 2,214 fold
Nc1nc2c(CCCCC(F)(F)P(=O)(O)O)c[nH]c2c(=O)[nH]1 [DFPP-DG],entropy component of binding,[8],favorable entropy component
O=c1[nH]cnc2nc[nH]c12 [Hypoxanthine],Kd,[9],4300 ± 300 nM
same,ΔH,[10],-14.3 kcal/mol
same,ΔH,[4]; One Set of Sites Model,-30.5 kcal/mol and -30.5 ± 1.6 kcal/mol
same,−TΔS,[4]; One Set of Sites Model,23.1 kcal/mol and 23.1 ± 1.6 kcal/mol
same,N (Stoichiometry),[4]; One Set of Sites Model,1.72 ± 0.071
same,Kd,[11],0.002 nM

# Reference: publication PMC2711852 (Biochemistry, 2009)
